Results from US10336768B2, “Pyrimidine compounds and methods using the same” (Yuma Therapeutics, Inc., priority 2014, dated 2019).
Several values for one entry are separate records, joined by “and”; a condition that tells them apart may be missing. Equal entries are not always repeated.

Experiments:
tau = settings: Corcoran et al., 2010; cited from earlier work
His-tagged-Hsp90 = test system: T1, His-tagged-Hsp90; test: Hsp90 biochemical assay (AlphaLISA); type: binding; settings: IC50 class; AlphaLISA (primary assay); read-out: Hsp90 inhibitory activity
T1 construct: fused on or other part: His tag (captured on Ni2+-coated beads)
Procedure: This assay employs biotinylated geldanamycin, His-tagged-Hsp90, and Ni^+2 coated beads. This assay is homogenous and miniaturized to 384-well plates. Measurement of binding activity was performed on an Envision reader. […] This assay is the primary assay for evaluating compounds of the invention.

Hsp70 = test: Hsp90 cell based functional assay (Western blot for Hsp70, Hsp90); settings: for Hsp 70 agonist activity: concentration at which Hsp70 is increased >2-fold: fold noted in cell: >2-fold; for Hsp 70 agonist activity: EC50 at which Hsp70 is increased two-fold: cells treated 24 h, Western blot; for EC50: read-out: Hsp 70 agonist activity; for Hsp 70 agonist activity, result in words: alternative result printed in the same cell
Procedure: Cells were treated with compounds of the invention for 24 h and then lysed in a buffer containing NP-40, orthovanadate, and protease inhibitors. Western blots were performed with antibodies specific to Hsp70, Hsp90, or actin (as control).

[1] = molecular target: truncated alpha-Hsp90 protein (Homo sapiens, UniProt P07900); test: Hsp90 biochemical assay (fluorescence polarization); type: binding; settings: footnotes (1)-(9) of Table 3, read-out: Hsp90 FP assay result
Procedure: Hsp90 inhibitory activity of the compounds of the invention was assessed using a fluorescence polarization (FP) assay using FITC-labeled geldanamycin and truncated alpha-Hsp90 protein. Measurement of binding activity was performed on BMG CLARIOstar® reader (BMG Labtech, Ortenberg, Germany).

O=[Se](=O)(O)O [Sodium selenate]
efficacy in TMHT tau model (tau): effective in the TMHT tau model

Cc1cc(-c2c(Cl)cc(Cl)c3c2CCO3)nc(N)n1 [compound 5, 4-(5,7-Dichloro-2,3-dihydrobenzofuran-4-yl)-6-methylpyrimidin-2-amine]
IC50 (His-tagged-Hsp90): < 1 µM
Hsp 70 agonist activity: concentration at which Hsp70 is increased >2-fold (Hsp70): >2 fold at 0.4-1.0 μM

CCc1cc(-c2c(Cl)cc(Cl)c3c2CCO3)nc(N)n1 [compound 6, 4-(5,7-dichloro-2,3-dihydrobenzofuran-4-yl)-6-ethylpyrimidin-2-amine]
IC50 (His-tagged-Hsp90): < 1 µM
Hsp 70 agonist activity: EC50 at which Hsp70 is increased two-fold (Hsp70): ≥10 µM

CC(C)c1cc(-c2c(Cl)cc(Cl)c3c2CCO3)nc(N)n1 [compound 7, 4-(5,7-dichloro-2,3-dihydrobenzofuran-4-yl)-6-isopropylpyrimidin-2-amine]
IC50 [1]: > 10 µM
IC50 (His-tagged-Hsp90): < 1 µM
EC50 (Hsp70): > 10 µM

COc1cc(-c2c(Cl)cc(Cl)c3c2CCO3)nc(N)n1 [compound 8, 4-(5,7-dichloro-2,3-dihydrobenzofuran-4-yl)-6-methoxypyrimidin-2-amine]
IC50 [1]: 5.5 µM and 6.2 µM
IC50 (His-tagged-Hsp90): < 1 µM
EC50 (Hsp70): > 10 µM

COc1cc(-c2nc(N)nc(C)c2C)c(Cl)cc1Cl [compound 9, 4-(2,4-Dichloro-5-methoxyphenyl)-5,6-dimethylpyrimidin-2-amine]
IC50 [1]: 1 µM and 1.4 µM
IC50 (His-tagged-Hsp90): < 1 µM
Hsp 70 agonist activity: concentration at which Hsp70 is increased 1.5-fold (Hsp70; fold noted in cell: 1.5-fold): 1.5-fold at 1 μM

Cc1nc(N)nc(-c2c(Cl)cc(Cl)c3c2CCO3)c1C [compound 10, 4-(5,7-Dichloro-2,3-dihydrobenzofuran-4-yl)-5,6-dimethylpyrimidin-2-amine]
IC50 [1]: 2.3 µM and 2.4 µM
IC50 (His-tagged-Hsp90): < 1 µM
Hsp 70 agonist activity: concentration at which Hsp70 is increased >2-fold (Hsp70): >2-fold at 0.4 μM

COc1cc(-c2nc(N)nc3c2CCC3)c(Cl)cc1Cl [compound 12, 4-(2,4-Dichloro-5-methoxyphenyl)-6,7-dihydro-5H-cyclopenta[d]pyrimidin-2-amine]
IC50 [1]: 1.7 µM
IC50 (His-tagged-Hsp90): < 1 µM
Hsp 70 agonist activity: concentration at which Hsp70 is increased >2-fold (Hsp70): >2-fold at ≥10 μM

Nc1nc2c(c(-c3c(Cl)cc(Cl)c4c3CCO4)n1)CCC2 [compound 13, 4-(5,7-Dichloro-2,3-dihydrobenzofuran-4-yl)-6,7-dihydro-5H-cyclopenta[d]pyrimidin-2-amine]
IC50 [1]: 1.8 µM
IC50 (His-tagged-Hsp90): < 1 µM
EC50 (Hsp70): > 10 µM

CN(C)CCOc1cc(-c2nc(N)nc3c2CCC3)c(Cl)cc1Cl [compound 14, 4-(2,4-dichloro-5-(2-(dimethylamino)ethoxy)phenyl)-6,7-dihydro-5H-cyclopenta[d]pyrimidin-2-amine]
IC50 (His-tagged-Hsp90): < 1 µM
Hsp 70 agonist activity: concentration at which Hsp70 is increased >2-fold (Hsp70): >2-fold at 10 μM

COc1cc(-c2nc(N)nc3cc[nH]c23)c(Cl)cc1Cl [compound 19, 4-(2,4-Dichloro-5-methoxyphenyl)-5H-pyrrolo[3,2-d]pyrimidin-2-amine]
IC50 (His-tagged-Hsp90): < 1 µM
Hsp 70 agonist activity: concentration at which Hsp70 is increased >2-fold (Hsp70): >2-fold at 0.4-1 μM

Cn1ccc2nc(N)nc(-c3c(Cl)cc(Cl)c4c3CCO4)c21 [compound 21, 4-(5,7-dichloro-2,3-dihydrobenzofuran-4-yl)-5-methyl-5H-pyrrolo[3,2-d]pyrimidin-2-amine]
IC50 (His-tagged-Hsp90): 1 to 4 µM
EC50 (Hsp70): > 10 µM

CCn1ccc2nc(N)nc(-c3c(Cl)cc(Cl)c4c3CCO4)c21 [compound 22, 4-(5,7-dichloro-2,3-dihydrobenzofuran-4-yl)-5-ethyl-5H-pyrrolo[3,2-d]pyrimidin-2-amine]
IC50 (His-tagged-Hsp90): 4 to 10 µM
EC50 (Hsp70): > 10 µM

CCOC(=O)c1cc2c(-c3c(Cl)cc(Cl)c4c3CCO4)nc(N)nc2s1 [compound 23, Ethyl-2-amino-4-(5,7-dichloro-2,3-dihydrobenzofuran-4-yl)thieno[2,3-d]pyrimidine-6-carboxylate]
IC50 [1]: 11.1 µM
IC50 (His-tagged-Hsp90): 4 to 10 µM
Hsp 70 agonist activity: EC50 at which Hsp70 is increased two-fold (Hsp70): 3.3 µM

CCNC(=O)c1cc2c(-c3c(Cl)cc(Cl)c4c3CCO4)nc(N)nc2s1 [compound 24, 2-amino-4-(5,7-dichloro-2,3-dihydrobenzofuran-4-yl)-N-ethylthieno[2,3-d]pyrimidine-6-carboxamide]
IC50 (His-tagged-Hsp90): < 1 µM
Hsp 70 agonist activity: EC50 at which Hsp70 is increased two-fold (Hsp70): 0.4 µM

COc1cc(-c2nc(N)nc3cc[nH]c23)c(Cl)cc1F [compound 25]
IC50 [1]: 12.1 µM and 19.3 µM
IC50 (His-tagged-Hsp90): 4 to 10 µM
Hsp 70 agonist activity, result in words (Hsp70): no observable effect
Hsp 70 agonist activity: fold increase of Hsp70 (Hsp70; concentration not given, alternative result: no observable effect): 1.5 fold

COc1cc(-c2nc(N)nc3ccn(C)c23)c(Cl)cc1F [compound 26]
IC50 [1]: 8.5 µM and 11.2 µM
IC50 (His-tagged-Hsp90): 1 to 4 µM
Hsp 70 agonist activity, result in words (Hsp70): no observable effect
Hsp 70 agonist activity: EC50 at which Hsp70 is increased two-fold (Hsp70): 3.3 µM

CN(C)CCOc1cc(-c2nc(N)nc3cc[nH]c23)c(Cl)cc1Cl [compound 27]
IC50 (His-tagged-Hsp90): 1 to 4 µM
Hsp 70 agonist activity: EC50 at which Hsp70 is increased two-fold (Hsp70): 10 µM

NC(=O)c1cc2c(-c3c(Cl)cc(Cl)c4c3CCO4)nc(N)nc2s1 [compound 29]
IC50 (His-tagged-Hsp90): < 1 µM
Hsp 70 agonist activity: EC50 at which Hsp70 is increased two-fold (Hsp70): 0.4 µM

COc1nc(N)nc(-c2cc(OC)c(Cl)cc2Cl)n1 [compound 36]
IC50 (His-tagged-Hsp90): < 1 µM
Hsp 70 agonist activity: EC50 at which Hsp70 is increased two-fold (Hsp70): >10 µM

COc1cc(-c2cc(Cl)nc(N)n2)c(Cl)cc1Cl [compound 39]
IC50 (His-tagged-Hsp90): < 1 µM
Hsp 70 agonist activity: EC50 at which Hsp70 is increased two-fold (Hsp70): 0.4 µM
